Source: US20090239920A1, “PHARMACEUTICAL FORMULATIONS OF AN ANHYDRATE CRYSTAL FORM OF 2-(3-FLUORO-4-HYDROXYPHENYL)-7-VINYL-1,3-BENZOXAZOL-5-OL” (WYETH, priority 2006, published 2009)

Assay: Crystal form conversion of Form D suspended and stirred in solvent at room temperature for seven days
Type: physicochemical
Description: The anhydrate crystal form (Form D) can be converted to other crystal forms under suitable conditions. […] 6, 2006).

Q: What does the source list for `C=Cc1cc(O)cc2nc(-c3ccc(O)c(F)c3)oc12` [Form D, 2-(3-fluoro-4-hydroxyphenyl)-7-vinyl-1,3-benzoxazol-5-ol]?
A: crystal form conversion (polymorphic stability) (suspended and stirred in ethanol or acetone at room temperature for seven days): another anhydrate crystal form is obtained; crystal form conversion (polymorphic stability) (suspended and stirred in methanol at room temperature for seven days): another anhydrate crystal form is obtained; crystal form conversion (polymorphic stability) (suspended and stirred in water at room temperature for seven days): most of the anhydrate crystal form is converted to a hydrate crystal form
